Experimental data taken from publication PMC8565515, “Dasabuvir Inhibits Human Norovirus Infection in Human Intestinal Enteroids” (mSphere, 2021).
Read-outs that look alike come from different tables or passages of the source.

Tests used:
[1] = system: GII.4 HuNoV; assay: GII.4 HuNoV infection of HIE monolayers, viral genome equivalents by RT-qPCR; type: cell-based, human norovirus; settings: GII.4 HuNoV, 24 hpi; for activity at 10 µM: Norovirus, 24 h, read-out: (%) HuNoV GEs; for activity at 10 µM / (%) HuNoV GEs: compound 10 μM, n = 1, J2 HIE monolayers, normalized to DMSO control
[2] = system: J2 HIE monolayers; assay: Cytotoxicity by LDH assay in J2 HIE monolayers; settings: 24 hpi; for (%) Cytotoxicity: compound 10 μM, n = 1, LDH assay, J2 HIE monolayers infected with GII.4 HuNoV, normalized to DMSO control
[3] = system: J2 HIE monolayers; settings: human, 24 h, 10 μM

Row | Compound | activity at 10 µM [1] | (%) Cytotoxicity [2] | further results
1 | CN(C)C[C@H](O)Cn1c2ccc(Br)cc2c2cc(Br)ccc21 (racemic) [Wiskostatin] | 22.9% | 2.02% | 
2 | C[C@@]1(O)[C@H](O)[C@@H](CO)O[C@H]1n1ccc(N)nc1=O [2-CMC, 2′-C-methylcytidine] |  |  | effect on HuNoV infection ([1]; 389 μM, J2 monolayers, positive control): completely blocked viral infection; cytotoxicity ([2]; 389 μM, J2 monolayers): without any cytotoxicity
3 | COc1cc2ncnc(Nc3cccc(Cl)c3)c2cc1OC [AG-1478] |  | 84.88% | 
4 | Nc1ncnc2c1ncn2[C@@H]1O[C@H](COP(=O)(O)O)[C@@H](O)[C@H]1O.O [Adenosine 5'-monophosphate monohydrate] | 34.4% | 0.18% | 
5 | C=C1CC[C@@H]2[C@](C)(CO)[C@H](O)CC[C@@]2(C)[C@@H]1C/C=C1/C(=O)OC[C@H]1O [Andrographolide] | 70.9% | -1.18% | 
6 | CCOC(=O)c1c(CSc2ccccc2)n(C)c2cc(Br)c(O)c(CN(C)C)c12.Cl [Arbidol hydrochloride] |  | 15.58% | (%) HuNoV GEs [1]: 16.88%
7 | COC(=O)c1cc(OC)c2c(c1-c1c(CO)cc(OC)c3c1OCO3)OCO2 [Bicyclol] | 162% | 0.26% | 
8 | O=c1[nH]c(=O)n([C@H]2C[C@H](O)[C@@H](CO)O2)cc1/C=C/Br [Brivudine] | 34.8% | 4.68% | 
9 | C[C@H]1CO[C@@H]2Cn3cc(C(=O)NCc4ccc(F)cc4F)c(=O)c(O)c3C(=O)N12 [Cabotegravir] | 54.1% | 5.83% | 
10 | CC(C)c1nc(CN(C)C(=O)N[C@@H](CCN2CCOCC2)C(=O)N[C@H](CC[C@H](Cc2ccccc2)NC(=O)OCc2cncs2)Cc2ccccc2)cs1 [Cobicistat] | 19.8% | -2.34% | 
11 | Cc1cc(C)c(Nc2ccnc(Nc3ccc(C#N)cc3)n2)c(C)c1 [Dapivirine] | 24.8% | 0.74% | 
12 | COC(=O)N[C@H](C(=O)NNC[C@H](O)[C@H](Cc1ccccc1)NC(=O)[C@@H](NC(=O)OC)C(C)(C)C)C(C)(C)C [Des(benzylpyridyl) Atazanavi] |  | 2.40% | (%) HuNoV GEs [1]: 101.09%
13 | CC1(C)[C@@H](O[C@H]2O[C@H](C(=O)O)[C@@H](O)[C@H](O)[C@H]2O[C@@H]2O[C@H](C(=O)O)[C@@H](O)[C@H](O)[C@H]2O)CC[C@]2(C)[C@H]3C(=O)C=C4[C@@H]5C[C@@](C)(C(=O)O)CC[C@]5(C)CC[C@@]4(C)[C@]3(C)CC[C@@H]12.N.N [Diammonium Glycyrrhizinate] |  | 0.23% | (%) HuNoV GEs [1]: 22.61%
14 | O=c1c2ccccc2[se]n1-c1ccccc1 [Ebselen] | 96.7% | 2.77% | 
15 | COc1cc2c(cc1Cc1cccc(Cl)c1F)c(=O)c(C(=O)O)cn2[C@H](CO)C(C)C [Elvitegravir] | 164% | 0.85% | 
16 | CCOC(=O)CCC(=O)O[C@H]1[C@H](O[C@@H]2[C@@H](C)[C@H](O[C@H]3C[C@@](C)(OC)[C@@H](O)[C@H](C)O3)[C@@H](C)C(=O)O[C@H](CC)[C@@](C)(O)[C@H](O)[C@@H](C)C(=O)[C@H](C)C[C@@]2(C)O)O[C@H](C)C[C@@H]1N(C)C [Erythromycin ethylsuccinate] | 107% | 0.23% | 
17 | CC[n+]1c(-c2ccccc2)c2cc(N)ccc2c2ccc(N)cc21 [Ethidium bromide] | 21.1% | -1.16% | 
18 | Cc1cc(C#N)cc(C)c1Oc1nc(Nc2ccc(C#N)cc2)nc(N)c1Br [Etravirine] | 28.8% | 24.52% | 
19 | NC(=O)c1nc(F)c[nH]c1=O [Favipiravir] | 81% | -1.51% | 
20 | O=S(=O)(CCC(F)=C(F)F)c1ncc(Cl)s1 [Fluensulfone] |  | -2.22% | (%) HuNoV GEs [1]: 63.19%
21 | COc1ccc([C@H]2OC[C@H]3[C@@H]2CO[C@H]3c2ccc(O[C@@H]3O[C@H](CO)[C@@H](O)[C@H](O)[C@H]3O)c(OC)c2)cc1OC [Forsythin] |  | 1.24% | (%) HuNoV GEs [1]: 52.42%
22 | CC1(C)[C@@H](O[C@H]2O[C@H](C(=O)O)[C@@H](O)[C@H](O)[C@H]2O[C@@H]2O[C@H](C(=O)O)[C@@H](O)[C@H](O)[C@H]2O)CC[C@]2(C)[C@H]3C(=O)C=C4[C@@H]5C[C@@](C)(C(=O)O)CC[C@]5(C)CC[C@@]4(C)[C@]3(C)CC[C@@H]12 [Glycyrrhizin] | 103% | 4.28% | 

Row | Compound | activity at 10 µM [1] | (%) Cytotoxicity [2] | further results
23 | Nc1nc2c(ncn2[C@@H]2O[C@H](CO)[C@@H](O)[C@H]2O)c(=O)[nH]1 [Guanosine] | 32.3% | 0.15% | 
24 | COc1ccnc(C[S+]([O-])c2nc3ccc(-n4cccc4)cc3[n-]2)c1C.[Na+] (stereo not drawn) [Ilaprazole sodium] |  | 1.57% | (%) HuNoV GEs [1]: 39.34%
25 | CC(C)=O.COC(=O)N[C@H](C(=O)N1CC2(CC2)C[C@H]1c1ncc(-c2ccc3c(c2)C(F)(F)c2cc(-c4ccc5nc([C@@H]6[C@H]7CC[C@H](C7)N6C(=O)[C@@H](NC(=O)OC)C(C)C)[nH]c5c4)ccc2-3)[nH]1)C(C)C [Ledipasvir acetone] |  | 6.17% | (%) HuNoV GEs [1]: 133.29%
26 | CC(C)(C)C#Cc1cc(N(C(=O)[C@H]2CC[C@H](C)CC2)[C@H]2CC[C@H](O)CC2)c(C(=O)O)s1 [Lomibuvir] | 87.6% | -1.75% | 
27 | CC(C)c1cc(Oc2c(Cl)cc(-n3nc(C#N)c(=O)[nH]c3=O)cc2Cl)n[nH]c1=O [MGL3196] | 70.8% | -0.56% | 
28 | CCOC(=O)c1c(C)n(C)c2ccc(O)cc12 [Mecarbinate] |  | 0.93% | (%) HuNoV GEs [1]: 102.13%
29 | Cl.N=C(N=C(N)N)N1CCOCC1 [Moroxydine hydrochloride] |  | -1.11% | (%) HuNoV GEs [1]: 119.22%
30 | CCCCCCCCCC(=O)O[C@H]1CC[C@H]2[C@@H]3CCC4=CC(=O)CC[C@@H]4[C@H]3CC[C@]12C [Nandrolone decanoate] | 58.9% | 0.98% | 
31 | O=C1C[C@@H](c2ccc(O)cc2)Oc2cc(O)cc(O)c21 [Naringenin] | 165% | 1.14% | 
32 | C[C@@H]1O[C@@H](O[C@H]2[C@H](Oc3cc(O)c4c(c3)O[C@H](c3ccc(O)cc3)CC4=O)O[C@H](CO)[C@@H](O)[C@@H]2O)[C@H](O)[C@H](O)[C@H]1O [Naringin] | 101% | 5.67% | 
33 | Cc1ccnc2c1NC(=O)c1cccnc1N2C1CC1 [Nevirapine] | 56.6% | 0.72% | 
34 | CC1(C)CC[C@]2(C(=O)O)CC[C@]3(C)C(=CC[C@@H]4[C@@]5(C)CC[C@H](O)C(C)(C)[C@@H]5CC[C@]43C)[C@@H]2C1 [Oleanolic Acid] | 82% | 4.14% | 
35 | CC1(C)CC[C@]2(C(=O)O)CC[C@]3(C)C(=CC[C@@H]4[C@@]5(C)CCC(=O)C(C)(C)[C@@H]5CC[C@]43C)[C@@H]2C1 [Oleanonic Acid] | 11.9% | -3.05% | 
36 | O=C(Nc1ccc(O)cc1)c1ccccc1O [Osalmid] | 52.1% | 3.16% | 
37 | O=C1CCC[C@@H]2[C@H]3CCC[N+]4([O-])CCC[C@@H](CN12)[C@@H]34 (stereo partly drawn) [Oxymatrine] | 56.1% | 2.33% | 
38 | Cc1cnc(C(=O)N[C@H]2CCCCC/C=C\[C@@H]3C[C@@]3(C(=O)NS(=O)(=O)C3CC3)NC(=O)[C@@H]3C[C@@H](Oc4nc5ccccc5c5ccccc45)CN3C2=O)cn1 [Paritaprevir] | 45% | -0.33% | 
39 | C[C@H]1CC[C@@]2(O)C(C)(C)[C@@H]3CC[C@@]2(C)[C@H]1C3 [Patchouli alcohol] |  | 1.24% | (%) HuNoV GEs [1]: 83.87%
40 | Cc1nc(N(C)C(=O)Cc2ccc(-c3ccccn3)cc2)sc1S(N)(=O)=O [Pritelivir] | 64.5% | -1.63% | 
41 | Cc1nnc(C(=O)NC(C)(C)c2nc(C(=O)NCc3ccc(F)cc3)c(O)c(=O)n2C)o1 [Raltegravir] | 49.3% | 1.45% | 
42 | Cc1cc(/C=C/C#N)cc(C)c1Nc1ccnc(Nc2ccc(C#N)cc2)n1 [Rilpivirine] | 117% | 0.20% | 
43 | C[C@@H](c1ncncc1F)[C@](O)(Cn1cncn1)c1ccc(F)cc1F [Voriconazole] | 14.1% |  | (%) Cytotoxicity [3]: -1.63%
44 | Nc1ccn([C@H]2CC[C@@H](CO)O2)c(=O)n1 [Zalcitabine] | 71.5% |  | (%) Cytotoxicity [3]: 2.88%
